Assay results published in PubChem BioAssay AID2423 (Broad Institute, 2010).
Records with an inconclusive call do not appear. Active and inactive are the calls of the source. No rule for the calls is given here.

tested on: C. albicans CaCi-8 + fluconazole, Alamar Blue growth, 48 h; assay: resistant C. albicans growth inhibition with fluconazole, dose response, CaCi-8 strain, Alamar Blue fluorescence (AID 2423)

SMILES	EC50
CCCc1cc(=O)[nH]c(SCC(=O)Nc2ccc(Br)cc2Br)n1	2590 nM
CCCOc1cccc(-c2nnc(NC(=O)c3ccco3)s2)c1	622 nM
CCCCNC(=O)/C(=C\c1ccc([N+](=O)[O-])o1)NC(=O)c1ccccc1	> 15000 nM (inactive)
CCn1nnnc1NC(=O)c1cc(Cl)c(OC)c(Cl)c1	5450 nM
O=C(NC(=S)NNC(=O)[C@H]1C[C@@H]1c1ccccc1)c1cccc(F)c1	2560 nM
COc1cc2c(cc1NC(=O)c1ccco1)CCCC2	1060 nM
Nc1c2c(nc3sc4c(c13)CCCCC4)CCCCC2	5550 nM
Cc1cccc(C(=O)NC(=S)NNC(=O)Cc2ccccc2)c1	10600 nM
CC(NC(=O)Nc1ccccc1F)C(C)(C)C (centres undefined)	> 16000 nM (inactive)
Cn1c(-c2c(N)n(CCc3ccccc3)c3nc4ccccc4nc23)nc2ccccc21	6180 nM
CCOC(=O)N1CCN(Cc2ccc(O)c3ncccc23)CC1	12500 nM
COc1cccc(C(=O)NNC(=O)c2ccc3ccccc3c2O)c1	9440 nM
O=C(NCc1cc([N+](=O)[O-])ccc1O)c1cccnc1Sc1ccccc1Cl	148 nM
Oc1ccc(N=Nc2nccs2)c(O)c1	7250 nM
CCOc1ccc2nc(N=NC3=C(O)CC(C)(C)CC3=O)sc2c1	> 16000 nM (inactive)
O=[N+]([O-])c1cc(S(=O)(=O)C(F)(F)F)ccc1Sc1nc2ccccc2s1	3200 nM
CCc1nnc(NC(=O)CN2CCN(c3nc(-c4ccccc4)cs3)CC2)s1	371 nM
N#C/C(=C(/O)COc1ccc(Cl)cc1)c1nc2ccccc2s1	> 15000 nM (inactive)
O=C(Nc1ccc(OCc2ccccc2Cl)cc1)c1cccnc1	3710 nM
CCCCCCCSc1nc(N)cc(=O)[nH]1	5940 nM
O=C(CCS(=O)(=O)c1cccc2nsnc12)N1CCN(C(=O)c2ccco2)CC1	> 16000 nM (inactive)
COc1ccc(-c2nnc(NC(=O)c3ccc(F)cc3)o2)cc1	246 nM
COc1ccc(C(NC(=O)C(C)C)c2ccc3cccnc3c2O)cc1 (centres undefined)	802 nM
O=c1cc(-c2ccccc2)c2ccc(O)cc2o1	3530 nM
Cc1ccc(OCC(=O)NNC(=S)NC(=O)C2CC2)c(C)c1	830 nM
COc1ccc(CCn2c(C)cc3c(c2=O)C(c2ccc4c(c2)OCO4)C(C#N)=C(N)O3)cc1OC (centres undefined)	> 16000 nM (inactive)
COc1ccc(NC(=O)c2ccc([N+](=O)[O-])o2)cc1	1340 nM

SMILES	EC50
Cc1c(CCOC(=O)CC23CC4CC(CC(C4)C2)C3)sc[n+]1Cc1ccccc1	10600 nM
Cc1cc(C(=O)Nc2nc(-c3ccccn3)cs2)ccc1[N+](=O)[O-]	960 nM
CN(C(=O)CSc1nnc(-c2ccco2)o1)C1CCCCC1	13200 nM
CCN(CC)Cc1ccc(NC(=O)c2sc3cc(Cl)ccc3c2Cl)cc1	1080 nM
C[C@]12CC[C@H](O)C[C@@H]1CC[C@@H]1[C@@H]2CC[C@]2(C)C(=O)CC[C@@H]12	5650 nM
CCC(=O)NC(c1ccc(OC)cc1)c1cc(Cl)c2cccnc2c1O (centres undefined)	976 nM
Cc1ccc(C(=O)N/N=C/c2c(O)ccc3ccccc23)cn1	947 nM
N#Cc1cc(C#N)c(N2CCN(c3cccc(Cl)n3)CC2)nc1N	1580 nM
O=C(Nc1ccc(F)c(Cl)c1)NC1CC1	1490 nM
Cc1ccc2[nH]c(C)c(/C=C/c3cc[n+](C)cc3)c2c1	2910 nM
CCCC(=O)NC(c1ccc(N(C)C)cc1)c1ccc2cccnc2c1O (centres undefined)	627 nM
CCN(CC)c1ccc(/C=N/NC(=O)c2cccc(S(=O)(=O)N3CCOCC3)c2)c(O)c1	513 nM
CCCCN(C(=O)/C=C/c1ccco1)c1c(N)n(Cc2ccccc2)c(=O)[nH]c1=O	> 15000 nM (inactive)
Oc1nc(Nc2ccccc2)sc1/C=C1\C=Nc2ccccc21	1630 nM
O=C(NNC1=C(C(=O)C(F)(F)F)CCC1)c1ccc(Br)cc1	790 nM
Cc1ccccc1-c1ccnc2[nH]n(-c3ccccc3)c(=O)c12	14500 nM
CCCC(=O)NC(c1ccccc1Cl)c1ccc2cccnc2c1O (centres undefined)	516 nM
CN1CCN(CC(=O)N2CCn3c4c(c5cc(C6CCCCC6)ccc53)CCCC42)CC1 (centres undefined)	4190 nM
CCOC(=O)c1sc(N2C(=O)C(O)=C(C(=O)c3ccco3)C2c2cccc(Cl)c2)nc1C (centres undefined)	597 nM
Cc1cc(Sc2ncnc(N)c2[N+](=O)[O-])ncn1	659 nM
N#C/C(=N/Nc1ccc(OC(F)(F)F)cc1)C(N)=S	> 15000 nM (inactive)
COc1ccc(-c2cc(=O)oc3cc(OC(=O)C4CCCCC4)c(Cl)cc23)cc1	1120 nM
O=C(Cc1nc2ccccc2s1)c1ccc(O)cc1O	2860 nM
O=C(NCC1CCCO1)c1cc2n(n1)C(C(F)(F)F)CC(c1ccc(Br)cc1)N2 (centres undefined)	7570 nM
COc1ccc(CCNC(=O)c2c(O)c3ccccc3n(C)c2=O)cc1	> 15000 nM (inactive)
Cc1ccc(C(=O)O/N=C/c2c(N3CCOCC3)n(C)c3ccccc23)cc1	623 nM
O=C(c1ccc(Cn2c(=S)[nH]c3ccccc3c2=O)cc1)N1CCN(c2ccccn2)CC1	695 nM
